Reference: the NIST ThermoML archive (doi:10.1016/j.fluid.2015.06.041)
± gives the expanded uncertainty stated by the source.

Tests used:
[1] = 101.33 kPa, Liquid; for viscosity: Capillary tube (Ostwald / Ubbelohde) method; for mass density: Vibrating tube method
[2] = xn = mol fraction of the nth substance listed; settings: 101 kPa, Liquid, x1 = 1; for viscosity: Capillary tube (Ostwald / Ubbelohde) method; for speed of sound: Frequency=2 MHz, Linear variable-path acoustic interferometer; for mass density: Vibrating tube method

| Structure (SMILES) | viscosity ([1]; 298.15 K) [mPa·s] | mass density ([1]; 298.15 K) [kg/m3] | viscosity ([1]; 308.15 K) [mPa·s] | mass density ([1]; 308.15 K) [kg/m3] | viscosity ([1]; 318.15 K) [mPa·s] | mass density ([1]; 318.15 K) [kg/m3] | viscosity ([2]; 298.15 K) [mPa·s] | speed of sound ([2]; 298.15 K) [m/s] | mass density ([2]; 298.15 K) [kg/m3] | viscosity ([2]; 308.15 K) [mPa·s] | mass density ([2]; 308.15 K) [kg/m3] | viscosity ([2]; 318.15 K) [mPa·s] | mass density ([2]; 318.15 K) [kg/m3] | viscosity ([2]; 298.18 K) [mPa·s] |
| --- | --- | --- | --- | --- | --- | --- | --- | --- | --- | --- | --- | --- | --- | --- |
| ClCCCl [1,2-dichloroethane] | 0.7804 ± 0.024 | 1246.37 ± 0.17 | 0.6744 ± 0.021 | 1231.21 ± 0.16 | 0.5719 ± 0.017 | 1214.55 ± 0.16 | – | – | – | – | – | – | – | – |
| C1COCCO1 [1,4-dioxane] | 1.178 ± 0.036 | 1027.79 ± 0.11 | 1.009 ± 0.031 | 1016.78 ± 0.11 | 0.8896 ± 0.027 | 1005.24 ± 0.11 | – | – | – | – | – | – | – | – |
| C1COCCO1 [1,4-dioxane] + ClCCCl | – | – | – | – | – | – | 1.178 ± 0.036 | 1343.4 ± 1.4 | 1027.79 ± 0.11 | 1.009 ± 0.031 | 1016.78 ± 0.11 | 0.8896 ± 0.027 | 1005.24 ± 0.11 | – |
| C1COCCO1 [1,4-dioxane] + NCCN | – | – | – | – | – | – | – | 1343.4 ± 1.4 | 1027.79 ± 0.11 | 1.009 ± 0.031 | 1016.78 ± 0.11 | 0.8896 ± 0.027 | 1005.24 ± 0.11 | 1.178 ± 0.036 |
| C1COCCO1 [1,4-dioxane] + NCCO | – | – | – | – | – | – | 1.178 ± 0.036 | 1343.4 ± 1.4 | 1027.79 ± 0.11 | 1.009 ± 0.031 | 1016.78 ± 0.11 | 0.8896 ± 0.027 | 1005.24 ± 0.11 | – |
| NCCO [2-aminoethan-1-ol] | 18.95 ± 0.58 | 1011.79 ± 0.24 | 11.96 ± 0.37 | 1004.68 ± 0.23 | 7.913 ± 0.24 | 998.15 ± 0.23 | – | – | – | – | – | – | – | – |
| NCCN [ethane-1,2-diamine] | 1.276 ± 0.039 | 894.79 ± 0.23 | 1.107 ± 0.034 | 885.63 ± 0.24 | 0.9445 ± 0.029 | 867.62 ± 0.24 | – | – | – | – | – | – | – | – |
